Read-outs that look alike come from different tables or passages of the source.
How the values were obtained:
[1] = Solubility versus pH profile
[2] = HMWP content by size-exclusion chromatography; format: physicochemical; conditions: analogs 10–21 (pH 4.0 series); covalent dimers and polymers prior to fibril formation testing, SEC, % of total absorbance area at 215 nm
How it was run: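 Amylin analogs analysed before fibril-formation testing by isocratic SEC in 0.5 M NaCl, 10 mM sodium dihydrogen phosphate, 5 mM ortho-phosphoric acid, 50% (v/v) 2-propanol. HMWP (covalent dimers/polymers) given as peak absorbance area percentage of total, assuming equal extinction coefficients for HMWP and main peak.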

rats = experiment: Acute food intake in rats; format: in vivo, rat; conditions: single sc injection of 30 nmol/kg, relative to vehicle, mean ± SEM, n = 5–7 per group
rCTR = molecular target: T1, rCTR (Rattus norvegicus, UniProt P32214); experiment: scintillation proximity binding assay, rCTR membranes
T1 construct: expressed in transfected cells; host or cells: BHK tk-ts 13, transient (FuGENE 6)
T1 sequence (P32214 25-479 isoform P32214-2 limits assumed): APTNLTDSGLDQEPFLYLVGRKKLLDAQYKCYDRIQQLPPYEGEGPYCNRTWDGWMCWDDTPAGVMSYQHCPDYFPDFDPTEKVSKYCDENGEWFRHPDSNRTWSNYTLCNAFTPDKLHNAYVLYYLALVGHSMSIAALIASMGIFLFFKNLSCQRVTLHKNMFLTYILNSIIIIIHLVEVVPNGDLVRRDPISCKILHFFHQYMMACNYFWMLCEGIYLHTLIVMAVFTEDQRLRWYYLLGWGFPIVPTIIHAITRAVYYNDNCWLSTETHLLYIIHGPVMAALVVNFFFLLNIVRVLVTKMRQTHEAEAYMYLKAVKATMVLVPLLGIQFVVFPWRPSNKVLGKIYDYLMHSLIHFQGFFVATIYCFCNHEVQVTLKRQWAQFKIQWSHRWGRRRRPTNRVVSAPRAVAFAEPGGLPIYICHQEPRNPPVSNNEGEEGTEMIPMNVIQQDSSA

hCTR = molecular target: T2, hCTR (Homo sapiens, UniProt P30988); experiment: scintillation proximity binding assay, hCTR membranes; design: expressed in transfected cells; host or cells: BHK tk-ts 13, transient (FuGENE 6); membranes for the SPA, whole cells for the species-specific assays
T2 sequence (P30988 25-474): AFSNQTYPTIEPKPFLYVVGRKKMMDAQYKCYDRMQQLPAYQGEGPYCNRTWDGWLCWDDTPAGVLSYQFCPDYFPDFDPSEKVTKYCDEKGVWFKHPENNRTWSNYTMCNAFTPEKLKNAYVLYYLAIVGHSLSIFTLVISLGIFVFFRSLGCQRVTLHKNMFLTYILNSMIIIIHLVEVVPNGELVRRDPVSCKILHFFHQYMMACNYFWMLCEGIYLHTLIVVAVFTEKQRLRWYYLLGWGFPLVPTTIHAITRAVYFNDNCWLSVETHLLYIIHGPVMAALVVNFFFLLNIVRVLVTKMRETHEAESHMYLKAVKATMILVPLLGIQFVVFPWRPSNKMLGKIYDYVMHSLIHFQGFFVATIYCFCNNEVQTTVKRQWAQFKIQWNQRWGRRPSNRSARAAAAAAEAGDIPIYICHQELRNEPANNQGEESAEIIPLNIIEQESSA

rat AMY3R = molecular target: T3, rat AMY3R (Rattus norvegicus, UniProt P32214+Q9JJ73); experiment: cAMP FlashPlate assay, rat AMY3R; format: cell-based; conditions: for EC50: cAMP (rat receptor assay); for ratio rCTR/rAMY3R: ratio of cAMP EC50 values
T3 construct: expressed in transfected cells; host or cells: BHK tk-ts 13, transient co-transfection (FuGENE 6)
T3 sequence (P32214 25-479 isoform P32214-2 limits assumed): T1 sequence (P32214 25-479 isoform P32214-2 limits assumed)
T3 sequence (Q9JJ73 23-147 partner): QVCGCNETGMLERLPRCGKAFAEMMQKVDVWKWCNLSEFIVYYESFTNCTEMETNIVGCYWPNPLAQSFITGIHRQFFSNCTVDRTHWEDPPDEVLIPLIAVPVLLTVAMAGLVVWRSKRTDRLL

[3] = bis-tris-propane buffer, pH 6, aqueous buffer
[4] = bis-tris-propane buffer, pH 6.5, aqueous buffer
[5] = bis-tris-propane buffer, pH 7, aqueous buffer
[6] = bis-tris-propane buffer, pH 7.5, aqueous buffer
[7] = bis-tris-propane buffer, pH 8, aqueous buffer
[8] = lactate buffer, pH 4, aqueous buffer
[9] = lactate buffer, pH 5, aqueous buffer
[10] = SPA binding assay, Tables S13 and S15
[11] = Tables S12 and S14, read-out: rAMY3R pEC50 (converted)
[12] = transiently transfected BHK tk-ts 13 cells, FlashPlate, 30 min room temperature, 2% HSA, read-out: rAMY3R EC50

Row | solubility kinetic [1, 3] [µM] | solubility kinetic [1, 4] [µM] | solubility kinetic [1, 5] [µM] | solubility kinetic [1, 6] [µM] | solubility kinetic [1, 7] [µM] | solubility kinetic [1, 8] [µM] | solubility kinetic [1, 9] [µM] | HMWP [2] [%] | rCTR pIC50 (rCTR; [10]) | hCTR pIC50 (hCTR; [10]) | EC50 (rat AMY3R; [11]) [nM] | EC50 (rat AMY3R; [12]) [nM] | ratio rCTR/rAMY3R (rat AMY3R) | IC50 (rCTR; SPA binding assay, Tables S13 and S15, read-out: rCTR pIC50 (converted)) [nM] | IC50 (rCTR; SPA, BHK cell membranes, 125I-Calcitonin 75 pM, 120 min 25 °C, read-out: rCTR IC50) [nM] | IC50 (hCTR; SPA binding assay, Tables S13 and S15, read-out: hCTR pIC50 (converted)) [nM] | IC50 (hCTR; SPA, BHK cell membranes, 125I-Calcitonin 75 pM, 120 min 25 °C, read-out: hCTR IC50) [nM] | SMILES | Acute food intake reduction 0–24 h (rats) [%] | Acute food intake reduction 24–48 h (rats) [%]
1 | ≥ 200 | ≥ 200 | ≥ 200 | ≥ 200 | ≥ 200 | ≥ 200 | ≥ 200 | 2.7 | 6.46 | 6.99 | 1.78 | 1.79 | 79 |  |  |  |  | CC[C@H](C)[C@H](NC(=O)[C@H](C)NC(=O)CNC(=O)[C@H](Cc1ccccc1)NC(=O)[C@H](CC(N)=O)NC(=O)[C@@H]1CCCN1C(=O)[C@H](CO)NC(=O)[C@H](CO)NC(=O)[C@H](Cc1c[nH]cn1)NC(=O)[C@H](CCCNC(=N)N)NC(=O)[C@H](CC(C)C)NC(=O)[C@H](Cc1ccccc1)NC(=O)[C@H](CC(N)=O)NC(=O)[C@H](C)NC(=O)[C@H](CC(C)C)NC(=O)[C@H](CCCNC(=N)N)NC(=O)[C@H](CCC(N)=O)NC(=O)[C@@H](NC(=O)[C@H](C)NC(=O)[C@@H]1CSSC[C@H](NC(=O)[C@H](CCCCN)NC(=O)COCCOCCNC(=O)COCCOCCNC(=O)CC[C@H](NC(=O)CCCCCCCCCCCCCCCCCCC(=O)O)C(=O)O)C(=O)N[C@@H](CC(N)=O)C(=O)N[C@@H]([C@@H](C)O)C(=O)N[C@@H](C)C(=O)N[C@@H]([C@@H](C)O)C(=O)N1)[C@@H](C)O)C(=O)N1CCC[C@H]1C(=O)N[C@@H](CO)C(=O)N[C@@H](CO)C(=O)N[C@H](C(=O)N[C@@H](CC(N)=O)C(=O)N[C@H](C(=O)NCC(=O)N[C@@H](CO)C(=O)N[C@@H](CC(N)=O)C(=O)N[C@H](C(=O)N[C@@H](Cc1ccc(O)cc1)C(N)=O)[C@@H](C)O)C(C)C)[C@@H](C)O [Peptide 10] | 22 ± 5 | 1 ± 5
2 | ≥ 200 | ≥ 200 | ≥ 200 | ≥ 200 | ≥ 200 | ≥ 200 | ≥ 200 | 2.1 | 7.05 | 7.13 | 0.603 | 0.599 | 50 |  |  |  |  | CC[C@H](C)[C@H](NC(=O)[C@H](C)NC(=O)CNC(=O)[C@H](Cc1ccccc1)NC(=O)[C@H](CC(N)=O)NC(=O)[C@@H]1CCCN1C(=O)[C@H](CO)NC(=O)[C@H](CO)NC(=O)[C@H](Cc1c[nH]cn1)NC(=O)[C@H](CCCNC(=N)N)NC(=O)[C@H](CC(C)C)NC(=O)[C@H](Cc1ccccc1)NC(=O)[C@H](CC(N)=O)NC(=O)[C@H](C)NC(=O)[C@H](CC(C)C)NC(=O)[C@H](CCCNC(=N)N)NC(=O)[C@H](CCC(N)=O)NC(=O)[C@@H](NC(=O)[C@H](C)NC(=O)[C@@H]1CSSC[C@H](NC(=O)[C@H](CCCCN)NC(=O)CC[C@H](NC(=O)CCCCCCCCCCCCCCCCCCC(=O)O)C(=O)O)C(=O)N[C@@H](CC(N)=O)C(=O)N[C@@H]([C@@H](C)O)C(=O)N[C@@H](C)C(=O)N[C@@H]([C@@H](C)O)C(=O)N1)[C@@H](C)O)C(=O)N1CCC[C@H]1C(=O)N[C@@H](CO)C(=O)N[C@@H](CO)C(=O)N[C@H](C(=O)N[C@@H](CC(N)=O)C(=O)N[C@H](C(=O)NCC(=O)N[C@@H](CO)C(=O)N[C@@H](CCCCN)C(=O)N[C@H](C(=O)N[C@@H](Cc1ccc(O)cc1)C(N)=O)[C@@H](C)O)C(C)C)[C@@H](C)O [Peptide 13] | 37 ± 7 | 25 ± 7
3 | ≥ 200 | ≥ 200 | ≥ 200 | ≥ 200 | ≥ 200 | ≥ 200 | ≥ 200 | 3.0 |  |  | 0.759 | 0.754 | 49 | 56.2 | 55.6 | 42.7 | 42.3 | CC[C@H](C)[C@H](NC(=O)[C@H](C)NC(=O)CNC(=O)[C@H](Cc1ccccc1)NC(=O)[C@H](CC(N)=O)NC(=O)[C@@H]1CCCN1C(=O)[C@H](CO)NC(=O)[C@H](CO)NC(=O)[C@H](Cc1c[nH]cn1)NC(=O)[C@H](CCCNC(=N)N)NC(=O)[C@H](CC(C)C)NC(=O)[C@H](Cc1ccccc1)NC(=O)[C@H](CC(N)=O)NC(=O)[C@H](C)NC(=O)[C@H](CC(C)C)NC(=O)[C@H](CCCNC(=N)N)NC(=O)[C@H](CCC(N)=O)NC(=O)[C@@H](NC(=O)[C@H](C)NC(=O)[C@@H]1CSSC[C@H](NC(=O)[C@@H](N)CCCCNC(=O)CC[C@H](NC(=O)CCCCCCCCCCCCCCCCCCC(=O)O)C(=O)O)C(=O)N[C@@H](CC(N)=O)C(=O)N[C@@H]([C@@H](C)O)C(=O)N[C@@H](C)C(=O)N[C@@H]([C@@H](C)O)C(=O)N1)[C@@H](C)O)C(=O)N1CCC[C@H]1C(=O)N[C@@H](CO)C(=O)N[C@@H](CO)C(=O)N[C@H](C(=O)N[C@@H](CC(N)=O)C(=O)N[C@H](C(=O)NCC(=O)N[C@@H](CO)C(=O)N[C@@H](CCCCN)C(=O)N[C@H](C(=O)N[C@@H](Cc1ccc(O)cc1)C(N)=O)[C@@H](C)O)C(C)C)[C@@H](C)O [Peptide 14] |  | 15 ± 4

— paper PMC11284788, “NN1213 – A Potent, Long-Acting, and Selective Analog of Human Amylin” (Journal of Medicinal Chemistry, 2024)
